Source: patent US20180177729A1, “G PROTEIN-COUPLED RECEPTORS INCORPORATED INTO REHYDRATED POLYMER VESICLES RETAIN FUNCTIONALITY” (UNIVERSITY OF SOUTHERN CALIFORNIA, priority 2016, published 2018)

Target: T1, human serotonin 5-HT1A receptor (5-HT1AR) (Homo sapiens, UniProt P08908)
T1 construct: purchased Perkin Elmer
T1 sequence (P08908 1-422): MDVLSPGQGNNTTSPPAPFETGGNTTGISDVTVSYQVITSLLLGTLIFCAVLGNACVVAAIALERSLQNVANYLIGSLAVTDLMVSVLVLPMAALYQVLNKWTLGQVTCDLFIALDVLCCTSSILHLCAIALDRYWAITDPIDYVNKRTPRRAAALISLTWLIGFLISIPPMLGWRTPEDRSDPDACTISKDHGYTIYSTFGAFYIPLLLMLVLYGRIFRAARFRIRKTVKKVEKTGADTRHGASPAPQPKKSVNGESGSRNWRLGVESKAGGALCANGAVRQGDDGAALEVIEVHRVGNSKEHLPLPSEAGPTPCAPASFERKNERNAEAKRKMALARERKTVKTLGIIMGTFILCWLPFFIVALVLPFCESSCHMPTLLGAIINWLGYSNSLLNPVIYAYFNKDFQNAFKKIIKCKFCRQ
Assay: 5-HT1A activity assay via microplate reader (BODIPY-GTPγS unquenching) in pGUPs
Assay type: biochemical
Conditions: for Rate (protein functional rate): agonist 8-OH-DPAT, 37° C., 12 hours
Procedure: Fluorescence unquenching of BODIPY-GTPγS due to G protein binding was monitored every 5 minutes. Tracked fluorescence over time was first calculated as percent intensity increase to account for variation in sample size. Curves represent six independent replicates of the same experimental protocol and each time point is an average of the intensity increase. Curves were then normalized for ease in viewing the differences in protein functional rate.
25 mm no. 1 coverslips were cleaned via sonication in MeOH for 30 minutes at 35° C. Coverslips were dried and were further plasma treated in a PDC-32G benchtop plasma cleaner (Harrick Plasma, USA) for 15 minutes. Coverslips were held in Sykes-Moore chambers for vesicle formation. Protein-incorporated polymeric giant unilamellar protein-vesicles (pGUPs) were formed using methods similar to those previously published for lipid vesicles. Briefly, a 1:1 v/v mixture of membrane fragment suspension and agarose (3% w/v) at 45° C. was drop casted onto coverslips for thin film formation. The hydrogel film was allowed to gel and a film of polymer solution (5 mg/ml in CHCl3) was subsequently made. Solvent was evaporated using a stream of N2 gas. […] Vesicles were harvested from the coverslip and diluted in 3× of an isoosmotic glucose solution (200 mM glucose in PBS, pH 7.4). (p)GUPs were allowed to sediment in glucose for 30 minutes at room temperature.
Prepared and settled pGUPs were transferred to a flat bottom 96-well plate. Agonist 8-OH-DPAT was added to each well to a final concentration of 150 nM immediately prior to reading fluorescence. Control pGUPs were run without the addition of the agonist. Rehydration buffer with and without agonist and protein were read as positive and negative controls. Samples were read at physiological temperature (37° C.) every 5 minutes for twelve hours to ensure complete activity assessment. Fluorescence reading of BODIPY-GTPγS unquenching was done on a Biotek Synergy H4 Microplate Reader equipped with a xenon flash lamp. Excitation was set to 485/20 nm and emission at 528/20 nm at a read height of 7 mm.
Fluorescence microtiter results were collect and analyzed using JMP. Six separate observations were fitted and averaged to obtain a single curve with standard error mean values. Rates were fitted to the JMP Mechanistic Growth curve using a single exponential. Statistical analysis using a Tukey-Kramer pairwise comparison of means were done using JMP with a 95% confidence interval (α=0.05).

SMILES | Rate (protein functional rate) (14 pM antagonist in pGUPs) [min⁻¹] | Rate (protein functional rate) (14 nM antagonist in pGUPs) [min⁻¹] | Rate (protein functional rate) (14 μM antagonist in pGUPs) [min⁻¹] | Effect on protein functional rate (antagonist in pGUPs)
O=C(CCCN1CCC2(CC1)C(=O)NCN2c1ccccc1)c1ccc(F)cc1 [Spiperone, spiperone] | 0.102 | 0.096 | 0.077 | –
COc1ccccc1N1CCN(CCCCN2C(=O)c3ccccc3C2=O)CC1 [NAN-190] | – | – | 0.057 | reduce the protein functional rate
